{"source": "patent US9416124B2", "about": "“Substituted 2-alkyl-1-OXO-N-phenyl-3-heteroaryl-1,2,3,4-tetrahydroisoquinoline-4-carboxamides for antimalarial therapies” (ST. JUDE CHILDREN'S RESEARCH HOSPITAL, priority 2011, dated 2016)", "tested_on": "P. falciparum 3D7", "assay": "P. falciparum drug susceptibility assay (3D7)", "type": "cell-based, Plasmodium falciparum", "protocol": "Parasites were grown as previously described in Mallari, J. P., Guiguemde, W. A., and Guy, R. K., Antimalarial activity of thiosemicarbazones and purine derived nitriles, Bioorg Med Chem Lett 19 (13), 3546 (2009). […] DMSO inhibitor stock solutions were pin-transferred (V&P Scientific) into the assay plate and background fluorescence was measured in both relevant channels (485 nm /535 nm, 612 nm /665 nm) in an Envision plate reader (PerkinElmer). Then 20 μl of a synchronized culture suspension (1% rings, 10% hematocrit) were added per well, thus making a final hematocrit and parasitemia of 5% and 1% respectively. Assay plates were incubated for 72 h and parasitemia was determined based on a modified protocol. (Smilkstein, M. et al., Simple and inexpensive fluorescence-based technique for high-throughput antimalarial drug screening. Antimicrob Agents Chemother 48 (5), 1803 (2004)). Briefly, 5 μl of mixed DNA dye solution in RPMI (5X SYBR Green I, 1 μM YOYO-3, 1% v/v Triton X-100, 1 mg/ml saponin) were added per well, assay plates were shaken for 30 s at 2000 rpm, incubated in the dark for 4 h, then read as previously described.", "key": {"[1]": {"conditions": "Plasmodium falciparum, 3D7 strain, racemate unless indicated, read-out: 3D7_EC50"}}, "note": "Where two headings read alike, the source gives them in different places.", "data": [{"smiles": "CC(C)CN1C(=O)c2ccc(F)cc2[C@H](C(=O)Nc2cccc(C#N)c2)[C@H]1c1cnn(C)c1", "note": "(racemic) [Example 47, N-(3-cyanophenyl)-6-fluoro-2-isobutyl-3-(1-methyl-1H-pyrazol-4-yl)-1-oxo-1,2,3,4-tetrahydroisoquinoline-4-carboxamide]", "values": [{"measurement": "EC50", "setting": "[1]", "value": 7, "unit": "nM"}]}, {"smiles": "CC(C)CN1C(=O)c2ccc(F)cc2[C@H](C(=O)Nc2cc(F)cc(C#N)c2)[C@H]1c1ccc(C#N)s1", "note": "(racemic) [Example 51, N-(3-cyano-5-fluorophenyl)-3-(5-cyanothiophen-2-yl)-6-fluoro-2-isobutyl-1-oxo-1,2,3,4-tetrahydroisoquinoline-4-carboxamide]", "values": [{"measurement": "EC50", "setting": "[1]", "value": 5, "unit": "nM"}]}, {"smiles": "Cn1cc([C@@H]2[C@@H](C(=O)Nc3cc(F)cc(C#N)c3)c3ccccc3C(=O)N2CC(F)(F)F)cn1", "note": "(racemic) [Example 22, N-(3-cyano-5-fluorophenyl)-3-(1-methyl-1H-pyrazol-4-yl)-1-oxo-2-(2,2,2-trifluoroethyl)-l,2,3,4-tetrahydroisoquinoline-4-carboxamide]", "values": [{"measurement": "EC50", "setting": "[1]", "value": 9, "unit": "nM"}]}, {"smiles": "O=C(Nc1ccc(F)c(OC(F)(F)F)c1)[C@H]1c2ccccc2C(=O)N(CC(F)(F)F)[C@@H]1c1cccnc1", "note": "(racemic) [Example 36, N-(4-fluoro-3-(trifluoromethoxy)phenyl)-1-oxo-3-(pyridin-3-yl)-2-(2,2,2-trifluoroethyl)-1,2,3,4-tetrahydroisoquinoline-4-carboxamide]", "values": [{"measurement": "EC50", "setting": "[1]", "value": 89, "unit": "nM"}]}, {"smiles": "CC(C)CN1C(=O)c2ccccc2[C@H](C(=O)Nc2cccc(C#N)c2)[C@H]1c1cn[nH]c1", "note": "(racemic) [Example 13, N-(3-cyanophenyl)-2-isobutyl-1-oxo-3-(1H-pyrazol-4-yl)-1,2,3,4-tetrahydroisoquinoline-4-carboxamide]", "values": [{"measurement": "EC50", "setting": "[1]", "value": 7, "unit": "nM"}]}, {"smiles": "N#Cc1cc(NC(=O)[C@H]2c3ccccc3C(=O)N(CC(F)(F)F)[C@@H]2c2cn[nH]c2)ccc1F", "note": "(racemic) [Example 2, N-(3-cyano-4-fluorophenyl)-1-oxo-3-(1H-pyrazol-4-yl)-2-(2,2,2-trifluoroethyl)-1,2,3,4-tetrahydroisoquinoline-4-carboxamide]", "values": [{"measurement": "EC50", "setting": "[1]", "value": 41, "unit": "nM"}]}, {"smiles": "CC(C)CN1C(=O)c2ccccc2[C@H](C(=O)Nc2cccc(OC(F)(F)F)c2)[C@H]1c1cn[nH]c1", "note": "(racemic) [Example 25, 2-isobutyl-1-oxo-3-(1H-pyrazol-4-yl)-N-(3-(trifluoromethoxy)phenyl)-1,2,3,4-tetrahydroisoquinoline-4-carboxamide]", "values": [{"measurement": "EC50", "setting": "[1]", "value": 11, "unit": "nM"}]}, {"smiles": "N#Cc1cc(F)cc(NC(=O)[C@H]2c3ccccc3C(=O)N(CC(F)(F)F)[C@@H]2c2cn[nH]c2)c1", "note": "(racemic) [Example 20, N-(3-cyano-5-fluorophenyl)-1-oxo-3-(1H-pyrazol-4-yl)-2-(2,2,2-trifluoroethyl)-1,2,3,4-tetrahydroisoquinoline-4-carboxamide]", "values": [{"measurement": "EC50", "setting": "[1]", "value": 9, "unit": "nM"}]}, {"smiles": "CC(C)CN1C(=O)c2ccccc2[C@H](C(=O)Nc2cccc(OC(F)(F)F)c2)[C@H]1c1cnn(C)c1", "note": "(racemic) [Example 27, 2-isobutyl-3-(1-methyl-1H-pyrazol-4-yl)-1-oxo-N-(3-(trifluoromethoxy)phenyl)-1,2,3,4-tetrahydroisoquinoline-4-carboxamide]", "values": [{"measurement": "EC50", "setting": "[1]", "value": 8, "unit": "nM"}]}, {"smiles": "CC(C)CN1C(=O)c2ccccc2[C@H](C(=O)Nc2cccc(OC(F)(F)F)c2)[C@H]1c1cccnc1", "note": "(racemic) [Example 29, 2-isobutyl-1-oxo-3-(pyridin-3-yl)-N-(3-(trifluoromethoxy)phenyl)-1,2,3,4-tetrahydroisoquinoline-4-carboxamide]", "values": [{"measurement": "EC50", "setting": "[1]", "value": 25, "unit": "nM"}]}, {"smiles": "CC(C)CN1C(=O)c2ccccc2[C@H](C(=O)Nc2ccc(F)c(OC(F)(F)F)c2)[C@H]1c1cn[nH]c1", "note": "(racemic) [Example 31, N-(4-fluoro-3-(trifluoromethoxy)phenyl)-2-isobutyl-1-oxo-3-(1H-pyrazol-4-yl)-1,2,3,4-tetrahydroisoquinoline-4-carboxamide]", "values": [{"measurement": "EC50", "setting": "[1]", "value": 13, "unit": "nM"}]}, {"smiles": "CC(C)CN1C(=O)c2ccccc2[C@H](C(=O)Nc2cccc(C#N)c2)[C@H]1c1cnn(C)c1", "note": "(racemic) [Example 15, N-(3-cyanophenyl)-2-isobutyl-3-(1-methyl-1H-pyrazol-4-yl)-1-oxo-1,2,3,4-tetrahydroisoquinoline-4-carboxamide]", "values": [{"measurement": "EC50", "setting": "[1]", "value": 36, "unit": "nM"}]}, {"smiles": "N#Cc1cc(NC(=O)[C@H]2c3ccccc3C(=O)N(CC(F)(F)F)[C@@H]2c2cccnc2)ccc1F", "note": "(racemic) [Example 6, N-(3-cyano-4-fluorophenyl)-1-oxo-3-(pyridin-3-yl)-2-(2,2,2-trifluoroethyl)-1,2,3,4-tetrahydroisoquinoline-4-carboxamide]", "values": [{"measurement": "EC50", "setting": "[1]", "value": 54, "unit": "nM"}]}, {"smiles": "N#Cc1cc(NC(=O)C2c3ccccc3C(=O)N(CC(F)(F)F)C2c2cccnc2)ccc1F", "note": "(single isomer, unassigned; isomer d) [Example 6 d-isomer, d-N-(3-cyano-4-fluoro) -1-Oxo-3-pyridin-3-yl-2-(2,2,2-trifluoro-ethyl)-1,2,3,4-tetrahydro-isoquinoline-4-carboxamide]", "values": [{"measurement": "EC50", "setting": "3D7 strain, racemate unless indicated, read-out: 3D7_EC50", "value": 17, "unit": "nM"}, {"measurement": "EC50", "setting": "separated enantiomers, assayed as described in 4a, listed as 6 d, read-out: Potency (nM, 3D7 strain)", "value": 15, "unit": "nM"}]}, {"smiles": "CC(C)CN1C(=O)c2ccccc2[C@H](C(=O)Nc2cc(Cl)cc(C#N)c2)[C@H]1c1cn[nH]c1", "note": "(racemic) [Example 7, N-(3-chloro-5-cyanophenyl)-2-isobutyl-1-oxo-3-(1H-pyrazol-4-yl)-1,2,3,4-tetrahydroisoquinoline-4-carboxamide]", "values": [{"measurement": "EC50", "setting": "[1]", "value": 3, "unit": "nM"}]}, {"smiles": "CC(C)CN1C(=O)c2ccccc2[C@H](C(=O)Nc2cc(Cl)cc(C#N)c2)[C@H]1c1cnn(C)c1", "note": "(racemic) [Example 9, N-(3-chloro-5-cyanophenyl)-2-isobutyl-3-(1-methyl-1H-pyrazol-4-yl)-1-oxo-1,2,3,4-tetrahydroisoquinoline-4-carboxamide]", "values": [{"measurement": "EC50", "setting": "[1]", "value": 8, "unit": "nM"}]}, {"smiles": "CC(C)CN1C(=O)c2ccccc2[C@H](C(=O)Nc2ccc(F)c(OC(F)(F)F)c2)[C@H]1c1cnn(C)c1", "note": "(racemic) [Example 33, N-(4-fluoro-3-(trifluoromethoxy)phenyl)-2-isobutyl-3-(1-methyl-1H-pyrazol-4-yl)-1-oxo-1,2,3,4-tetrahydroisoquinoline-4-carboxamide]", "values": [{"measurement": "EC50", "setting": "[1]", "value": 17, "unit": "nM"}]}, {"smiles": "O=C(Nc1ccc(F)c(OC(F)(F)F)c1)[C@H]1c2ccccc2C(=O)N(CC(F)(F)F)[C@@H]1c1cn[nH]c1", "note": "(racemic) [Example 32, N-(4-fluoro-3-(trifluoromethoxy)phenyl)-1-oxo-3-(1H-pyrazol-4-yl)-2-(2,2,2-trifluoroethyl)-1,2,3,4-tetrahydroisoquinoline-4-carboxamide]", "values": [{"measurement": "EC50", "setting": "[1]", "value": 22, "unit": "nM"}]}, {"smiles": "Cn1cc([C@@H]2[C@@H](C(=O)Nc3ccc(F)c(C#N)c3)c3ccccc3C(=O)N2CC(F)(F)F)cn1", "note": "(racemic) [Example 4, N-(3-cyano-4-fluorophenyl)-3-(1-methyl-1H-pyrazol-4-yl)-1-oxo-2-(2,2,2-trifluoroethyl)-1,2,3,4-tetrahydroisoquinoline-4-carboxamide]", "values": [{"measurement": "EC50", "setting": "[1]", "value": 24, "unit": "nM"}]}, {"smiles": "O=C(Nc1cc(F)cc(OC(F)(F)F)c1)[C@H]1c2ccccc2C(=O)N(CC(F)(F)F)[C@@H]1c1cccnc1", "note": "(racemic) [Example 42, N-(3-fluoro-5-(trifluoromethoxy)phenyl)-1-oxo-3-(pyridin-3-yl)-2-(2,2,2-trifluoroethyl)-1,2,3,4-tetrahydroisoquinoline-4-carboxamide]", "values": [{"measurement": "EC50", "setting": "[1]", "value": 144, "unit": "nM"}]}, {"smiles": "Cn1cc([C@@H]2[C@@H](C(=O)Nc3cccc(C#N)c3)c3ccccc3C(=O)N2CC(F)(F)F)cn1", "note": "(racemic) [Example 16, N-(3-cyanophenyl)-3-(1-methyl-1H-pyrazol-4-yl)-1-oxo-2-(2,2,2-trifluoroethyl)-1,2,3,4-tetrahydroisoquinoline-4-carboxamide]", "values": [{"measurement": "EC50", "setting": "[1]", "value": 22, "unit": "nM"}]}, {"smiles": "N#Cc1cc(Cl)cc(NC(=O)[C@H]2c3ccccc3C(=O)N(CC(F)(F)F)[C@@H]2c2cccnc2)c1", "note": "(racemic) [Example 12, N-(3-chloro-5-cyanophenyl)-1-oxo-3-(pyridin-3-yl)-2-(2,2,2-trifluoroethyl)-1,2,3,4-tetrahydroisoquinoline-4-carboxamide]", "values": [{"measurement": "EC50", "setting": "[1]", "value": 36, "unit": "nM"}]}, {"smiles": "N#Cc1cc(NC(=O)C2c3ccccc3C(=O)N(CC(F)(F)F)C2c2cccnc2)ccc1F", "note": "(single isomer, unassigned) [Example 6 l-isomer, l-N-(3-cyano-4-fluoro)-1-Oxo-3-pyridin-3-yl-2-(2,2,2-trifluoro-ethyl)-1,2,3,4-tetrahydro isoquinoline-4-carboxamide]", "values": [{"measurement": "EC50", "setting": "separated enantiomers, assayed as described in 4a, listed as 6 l, read-out: Potency (nM, 3D7 strain)", "value": 477, "unit": "nM"}]}, {"smiles": "O=C(Nc1cc(F)cc(OC(F)(F)F)c1)[C@H]1c2ccccc2C(=O)N(CC(F)(F)F)[C@@H]1c1cn[nH]c1", "note": "(racemic) [Example 38, N-(3-fluoro-5-(trifluoromethoxy)phenyl)-1-oxo-3-(1H-pyrazol-4-yl)-2-(2,2,2-trifluoroethyl)-1,2,3,4-tetrahydroisoquinoline-4-carboxamide]", "values": [{"measurement": "EC50", "setting": "[1]", "value": 61, "unit": "nM"}]}, {"smiles": "N#Cc1cccc(NC(=O)[C@H]2c3ccccc3C(=O)N(CC(F)(F)F)[C@@H]2c2cccnc2)c1", "note": "(racemic) [Example 18, N-(3-cyanophenyl)-1-oxo-3-(pyridin-3-yl)-2-(2,2,2-trifluoroethyl)-1,2,3,4-tetrahydroisoquinoline-4-carboxamide]", "values": [{"measurement": "EC50", "setting": "[1]", "value": 24, "unit": "nM"}]}, {"smiles": "Cn1cc([C@@H]2[C@@H](C(=O)Nc3cc(Cl)cc(C#N)c3)c3ccccc3C(=O)N2CC(F)(F)F)cn1", "note": "(racemic) [Example 10, N-(3-chloro-5-cyanophenyl)-3-(1-methyl-1H-pyrazol-4-yl)-1-oxo-2-(2,2,2-trifluoroethyl)-1,2,3,4-tetrahydroisoquinoline-4-carboxamide]", "values": [{"measurement": "EC50", "setting": "[1]", "value": 6, "unit": "nM"}]}]}
